In the assay the test system is L1210 leukemia ip in BDF1 mice, survival T/C. Kind of assay: NCI In Vivo Anticancer Drug Screen. Data for tumor model L1210 Leukemia (intraperitoneal) in B6D2F1 (BDF1) mice. The settings on record: endpoint: mean survival time, higher = longer survival. A digest of the protocol:
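Transplantable tumor model; survival measured in treated vs vehicle control mice. Value = treated/control.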

[1] abbreviates: dose: 50.0 mg/kg/injection, schedule: Q01DX001 (ip), vehicle: carboxymethylcellulose (CMC).
The mark [2] stands for this setting: dose: 100.0 mg/kg/injection, schedule: Q01DX001 (ip), vehicle: carboxymethylcellulose (CMC).
The mark [3] stands for this setting: dose: 200.0 mg/kg/injection, schedule: Q01DX001 (ip), vehicle: carboxymethylcellulose (CMC).
Setting [4] is: dose: 400.0 mg/kg/injection, schedule: Q01DX001 (ip), vehicle: carboxymethylcellulose (CMC).
[5] abbreviates: dose: 100.0 mg/kg/injection, schedule: Q04DX003 (ip), vehicle: Klucel (hydroxypropylcellulose) (HPC).
[6] abbreviates: dose: 200.0 mg/kg/injection, schedule: Q04DX003 (ip), vehicle: Klucel (hydroxypropylcellulose) (HPC).

Toxic doses and inconclusive results are not listed.

This is an account of results in PubChem BioAssay AID248 (DTP/NCI, 2004).

For `O=C(Nc1ccc(C2=NCCN2)cc1)c1cncc(C(=O)Nc2ccc(C3=NCCN3)cc2)c1`, the T/C is 97 % of control (dose: 1.0 mg/kg/injection, schedule: Q01DX Z (ip), vehicle: saline); 111 % of control (dose: 2.0 mg/kg/injection, schedule: Q01DX Z (ip), vehicle: saline); 223 % of control (dose: 15.0 mg/kg/injection, schedule: Q01DX Z (ip), vehicle: carboxymethylcellulose (CMC)); 214 % of control (dose: 16.0 mg/kg/injection, schedule: Q01DX Z (ip), vehicle: saline); 158 % of control (dose: 30.0 mg/kg/injection, schedule: Q01DX Z (ip), vehicle: carboxymethylcellulose (CMC)); 101 % of control (dose: 30.0 mg/kg/injection, schedule: Q01DX Z (oral), vehicle: saline). Moreover, the T/C is 120 % of control (dose: 60.0 mg/kg/injection, schedule: Q01DX Z (ip), vehicle: carboxymethylcellulose (CMC)); 104 % of control (dose: 60.0 mg/kg/injection, schedule: Q01DX Z (oral), vehicle: saline); 98 % of control (dose: 120.0 mg/kg/injection, schedule: Q01DX Z (oral), vehicle: saline); 106 % of control (dose: 240.0 mg/kg/injection, schedule: Q01DX Z (oral), vehicle: saline); 101 % of control (dose: 480.0 mg/kg/injection, schedule: Q01DX Z (oral), vehicle: saline); 101 % of control (dose: 960.0 mg/kg/injection, schedule: Q01DX Z (oral), vehicle: saline).

As for `CCCCN1C(=O)c2ccccc2C1=O`, the T/C was 102 % of control (dose: 100.0 mg/kg/injection, schedule: Q04DX003 (ip), vehicle: carboxymethylcellulose (CMC)); 93 % of control (dose: 200.0 mg/kg/injection, schedule: Q04DX003 (ip), vehicle: carboxymethylcellulose (CMC)); 101 % of control (dose: 400.0 mg/kg/injection, schedule: Q04DX003 (ip), vehicle: carboxymethylcellulose (CMC)).

Regarding `COC(=O)c1c(C)cc(C)c(C(C)=O)c1O`, the T/C was 96 % of control under setting [1], 102 % of control under setting [2], 104 % of control under setting [3] and 107 % of control under setting [4].

`Brc1ccc2c(ccn2Cc2ccccc2)c1`: the T/C was 109 % of control (dose: 100.0 mg/kg/injection, schedule: Q04DX003 (sc), vehicle: olive oil, sesame oil, peanut oil); 106 % of control (dose: 200.0 mg/kg/injection, schedule: Q04DX003 (sc), vehicle: olive oil, sesame oil, peanut oil); 104 % of control (dose: 400.0 mg/kg/injection, schedule: Q04DX003 (sc), vehicle: olive oil, sesame oil, peanut oil).

For the compound `CCOC(=O)C1C(=O)NC(C(=O)OCC)(C(=O)OCC)C1C(C)C` (stereo unspecified), the T/C reads like this: (dose: 50.0 mg/kg/injection, schedule: Q04DX003 (ip), vehicle: Klucel (hydroxypropylcellulose) (HPC)) 96 % of control; under setting [5], 100 % of control; under setting [6], 96 % of control.

`CCCCCCCCC1SC1CCCCCCCC(=O)NCCCOCCOCCOCC` (stereo unspecified): the T/C was 96 % of control under setting [5]; 100 % of control under setting [6]; 96 % of control (dose: 400.0 mg/kg/injection, schedule: Q04DX003 (ip), vehicle: Klucel (hydroxypropylcellulose) (HPC)).

As to `CCOC(=O)/C(C)=N\Nc1ccc([N+](=O)[O-])cc1`, the T/C is 92 % of control under setting [1], 90 % of control under setting [2], 92 % of control under setting [3] and 103 % of control under setting [4].

With `C[N+]1(C)N=C(c2ccccc2)C=C1[O-]`, the T/C is 111 % of control (dose: 100.0 mg/kg/injection, schedule: Q04DX002 (ip), vehicle: other); 106 % of control (dose: 200.0 mg/kg/injection, schedule: Q04DX002 (ip), vehicle: other); 100 % of control (dose: 400.0 mg/kg/injection, schedule: Q04DX002 (ip), vehicle: other).

In the case of `S=C(c1ccccc1)N1CCOCC1`, the T/C is 100 % of control (dose: 100.0 mg/kg/injection, schedule: Q04DX002 (ip), vehicle: Klucel (hydroxypropylcellulose) (HPC)); 111 % of control (dose: 200.0 mg/kg/injection, schedule: Q04DX002 (ip), vehicle: Klucel (hydroxypropylcellulose) (HPC)); 96 % of control (dose: 400.0 mg/kg/injection, schedule: Q04DX002 (ip), vehicle: Klucel (hydroxypropylcellulose) (HPC)).

Regarding `CCCC(CNC(=O)OCC)(CNC(=O)OCC)c1ccccc1`, the T/C is 94 % of control under setting [2], 94 % of control under setting [3] and 105 % of control under setting [4].
